Data reported in patent US20170211035A1, “BIOLOGICAL INDICATORS” (American Sterilizer Company, priority 2016, published 2017).

System: Geobacillus stearothermophilus spores
Assay: Steam resistance of biological indicators in the BIER vessel (kill kinetics, log population versus time)
Type: cell-based
Protocol: In the following examples, the test organism is prepared using a standard lot of Geobacillus stearothermophilus spores suspended in an aqueous carbohydrate solution. In these examples, xylose and dextrose are used as the carbohydrates. Comparative examples are also provided wherein the carbohydrate is not used. In each case, the aqueous suspension is placed in a vial and allowed to dry. The resulting biological indicators are resistance tested. The tests show an unexpected decrease in resistance when the biological indicators are derived from a carbohydrate solution as compared to when no carbohydrate is used.
In these examples, the biological indicators are tested for resistance to steam sterilization using the biological indicator evaluation resistor (BIER) vessel depicted in FIG. 5A. Referring to FIG. 5A, BIER vessel 300 includes chamber 310, door 320, and interior shelf 330 for placement of the biological indicators. Steam, heat and pressure enters chamber 310 as indicated by arrow 340. Vent 350 is provided for the rapid release of steam, heat and pressure. Operation is controlled by a computerized processor, sensors, and valves designed to introduce rapid changes to the environment within the chamber 310.
Referring to FIG. 5B, the process cycle used in the BIER vessel includes six phases, these phases being numbered as phases 1-6 in FIG. 5B. These phases can be described as follows:
The term “log population” refers to the log of the number of colony-forming units (cfu) of viable spores in the test sample. For example, a log population of 6 refers to 10^6 (or 1,000,000) viable colony-forming units of spores in the test sample.

## O=C[C@H](O)[C@@H](O)[C@H](O)CO [xylose]
Steam at 121° C., spores dried from suspension in 0.5M carbohydrate solution
  resistance (time): approximately 4 minutes
Steam at 121° C., spores dried from suspension in 1.67 M xylose solution
  time for a 6 log reduction (kill kinetics): approximately 5 minutes
Steam at 132° C., spores dried from suspension in xylose solution as in Example 1 (1.67 M)
  resistance (time): approximately 1.5 minutes
